Converted amounts (≈) assume the structure as drawn. The source made the active and inactive calls. The calls are words filed in the database; no cut-off is given here.
Tests used:
[1] = Cytotoxicity against human HEPA 59T/VGH cells by MTT assay; format: functional; settings: read-out: ED50 (the source's name)
KB = test: Cytotoxicity against human KB cells by MTT assay; format: functional

Structure (SMILES) | EC50 [1] [µg/mL] | Activity (KB) | EC50 (KB; read-out: ED50 (the source's name)) [µg/mL]
CC(C)[C@]12C=C3[C@](C)(O)CC[C@]3(OO1)[C@@H](C)CC2 (relative stereo) [PEROXYGIBBEROL] | 8.2 (≈ 32.5 µM) | inactive | –
CC(=O)CC[C@@H]1C(=O)C=C(C(C)C)CC[C@@H]1C [GIBBERODIONE] | > 30 | – | > 30
C=C1CC/C=C(\C)C[C@H](O)/C(C(C)C)=C\[C@H]2[C@H]1CC[C@]2(C)O [SARCOPHYTOL L] | 12.6 (≈ 41.4 µM) | inactive | –

Source: ChEMBL document CHEMBL1141772, “Oxygenated terpenoids from a formosan soft coral Sinularia gibberosa” (2005)
